# Patent US6989389B2, “Aryl ether substituted imidazoquinolines” (3M Innovative Properties Co., priority 2000, dated 2006)
# Read-outs that look alike come from different tables or passages of the source.
# Tested on: Peripheral blood mononuclear cells (PBMC)
# Experiment: Cytokine Induction in Human Cells (in vitro human blood cell system, IFN and TNF secreted into culture media)
# Assay type: cell-based
# Set-up: key to Lowest Effective Concentration (μM) Tumor Necrosis Factor / Lowest Effective Concentration (μM) Interferon: *: no induction was seen at any of the tested concentrations
# Conditions: 18 to 24 hours, tested 30-0.014 μM; for minimal effective concentration: Homo sapiens, PBMC
# Excerpt: An in vitro human blood cell system is used to assess cytokine induction. Activity is based on the measurement of interferon and tumor necrosis factor (α) (IFN and TNF, respectively) secreted into culture media as described by Testerman et. al. In “Cytokine Induction by the Immunomodulators Imiquimod and S-27609”, Journal of Leukocyte Biology, 58, 365-372 (September, 1995).
# Whole blood from healthy human donors is collected by venipuncture into EDTA vacutainer tubes. Peripheral blood mononuclear cells (PBMC) are separated from whole blood by density gradient centrifugation using Histopaque®-1077. Blood is diluted 1:1 with Dulbecco's Phosphate Buffered Saline (DPBS) or Hank's Balanced Salts Solution (HBSS). The PBMC layer is collected and washed twice with DPBS or HBSS and resuspended at 4×10^6 cells/mL in RPMI complete. The PBMC suspension is added to 48 well flat bottom sterile tissue culture plates (Costar, Cambridge, Mass. or Becton Dickinson Labware, Lincoln Park, N.J.) containing an equal volume of RPMI complete media containing test compound.
# The compounds are solubilized in dimethyl sulfoxide (DMSO). The DMSO concentration should not exceed a final concentration of 1% for addition to the culture wells. The compounds are generally tested at concentrations ranging from 30-0.014 μM.
# The solution of test compound is added at 60 μM to the first well containing RPMI complete and serial 3 fold dilutions are made in the wells. The PBMC suspension is then added to the wells in an equal volume, bringing the test compound concentrations to the desired range (30-0.014 μM). The final concentration of PBMC suspension is 2×10^6 cells/mL. The plates are covered with sterile plastic lids, mixed gently and then incubated for 18 to 24 hours at 37° C. in a 5% carbon dioxide atmosphere.
# Following incubation the plates are centrifuged for 10 minutes at 1000 rpm (˜200×g) at 4° C. The cell-free culture supernatant is removed with a sterile polypropylene pipet and transferred to sterile polypropylene tubes. Samples are maintained at −30 to −70° C. until analysis. The samples are analyzed for interferon (α) by ELISA and for tumor necrosis factor (α) by ELISA or IGEN Assay.
# Interferon (α) concentration is determined by ELISA using a Human Multi-Species kit from PBL Biomedical Laboratories, New Brunswick, N.J. Results are expressed in pg/mL.
# Tumor necrosis factor (α) (TNF) concentration is determined using ELISA kits available from Biosource International, Camarillo, Calif. Alternately, the TNF concentration can be determined by Origen® M-Series Immunoassay and read on an IGEN M-8 analyzer from IGEN International, Gaithersburg, Md. The immunoassay uses a human TNF capture and detection antibody pair from Biosource International, Camarillo, Calif. Results are expressed in pg/mL.
# The table below lists the lowest concentration found to induce interferon and the lowest concentration found to induce tumor necrosis factor for each compound.
# [1] = lowest concentration found to induce interferon (α), ELISA, read-out: Lowest Effective Concentration (μM) Interferon
# [2] = lowest concentration found to induce tumor necrosis factor (α), ELISA or IGEN assay
# [3] = lowest concentration found to induce interferon (α), ELISA
# [4] = lowest concentration found to induce tumor necrosis factor (α), ELISA or IGEN assay, read-out: Lowest Effective Concentration (μM) Tumor Necrosis Factor
Compound,minimal effective concentration [1] [µM],Lowest Effective Concentration (μM) Tumor Necrosis Factor [2],Lowest Effective Concentration (μM) Interferon [3],minimal effective concentration [4] [µM]
CCC(COCc1ccc(C)cc1)n1cnc2c(N)nc3ccccc3c21 (centres unmarked) [Example 49],0.04,*,,
Cc1ccc(COC(C)Cn2cnc3c(N)nc4ccccc4c32)cc1 (centres unmarked) [Example 50],3.33,*,,
CC(Cn1cnc2c(N)nc3ccccc3c21)Oc1ccccc1[N+](=O)[O-] (centres unmarked) [Example 51],0.37,*,,
CC(Cn1cnc2c(N)nc3ccccc3c21)OCc1ccc(Cl)cc1 (centres unmarked) [Example 52],1.11,*,,
CC(Cn1cnc2c(N)nc3ccccc3c21)OCc1ccc(Cl)c(Cl)c1 (centres unmarked) [Example 53],1.11,*,,
CC(Cn1cnc2c(N)nc3ccccc3c21)Oc1ccc([N+](=O)[O-])cc1 (centres unmarked) [Example 54],0.12,*,,
Cc1ccc([N+](=O)[O-])c(OCC(C(C)C)n2cnc3c(N)nc4ccccc4c32)c1 (centres unmarked) [Example 55],,*,*,
Cc1ccc([N+](=O)[O-])c(OC(C)Cn2cnc3c(N)nc4ccccc4c32)c1 (centres unmarked) [Example 56],1.11,,,10
CC(C)C(COc1ccccc1[N+](=O)[O-])n1cnc2c(N)nc3ccccc3c21 (centres unmarked) [Example 57],,,*,30
CC(C)C(COc1ccc([N+](=O)[O-])cc1)n1cnc2c(N)nc3ccccc3c21 (centres unmarked) [Example 58],3.33,*,,
CC(C)C(COCc1ccccc1)n1cnc2c(N)nc3ccccc3c21 (centres unmarked) [Example 59],1.11,*,,
CC(C)C(COCc1ccc(Cl)cc1)n1cnc2c(N)nc3ccccc3c21 (centres unmarked) [Example 60],1.11,*,,
CC(C)C(COCc1cccc(Cl)c1)n1cnc2c(N)nc3ccccc3c21 (centres unmarked) [Example 61],3.33,*,,
CC(C)C(COCc1ccc(Cl)c(Cl)c1)n1cnc2c(N)nc3ccccc3c21 (centres unmarked) [Example 62],,,*,3.33
CC(C)C(COCc1cccc(C(F)(F)F)c1)n1cnc2c(N)nc3ccccc3c21 (centres unmarked) [Example 63],,*,*,
CC(C)C(COCc1ccc(C#N)cc1)n1cnc2c(N)nc3ccccc3c21 (centres unmarked) [Example 64],3.33,*,,
CC(C)C(COCc1cccc(C#N)c1)n1cnc2c(N)nc3ccccc3c21 (centres unmarked) [Example 65],1.11,*,,
COC(=O)c1ccc(COCC(C(C)C)n2cnc3c(N)nc4ccccc4c32)cc1 (centres unmarked) [Example 66],,*,*,
CC(Cn1cnc2c(N)nc3ccccc3c21)OCc1ccc(C(C)(C)C)cc1 (centres unmarked) [Example 67],,,*,30
CC(Cn1cnc2c(N)nc3ccccc3c21)OCc1ccc(C(F)(F)F)cc1 (centres unmarked) [Example 68],3.33,*,,
CC(Cn1cnc2c(N)nc3ccccc3c21)OCc1cccc2ccccc12 (centres unmarked) [Example 69],1.11,*,,
CC(COCc1ccccc1)n1cnc2c(N)nc3ccccc3c21 (centres unmarked) [Example 70],0.37,*,,

Compound,minimal effective concentration [1] [µM],Lowest Effective Concentration (μM) Tumor Necrosis Factor [2],Lowest Effective Concentration (μM) Interferon [3],minimal effective concentration [4] [µM]
COC(=O)c1ccc(COCC(C)n2cnc3c(N)nc4ccccc4c32)cc1 (centres unmarked) [Example 71],3.33,*,,
Cc1ccc(COCC(C)n2cnc3c(N)nc4ccccc4c32)cc1 (centres unmarked) [Example 72],1.11,*,,
CC(COCc1ccc(Cl)cc1)n1cnc2c(N)nc3ccccc3c21 (centres unmarked) [Example 73],1.11,*,,
CC(COCc1ccc(C(F)(F)F)cc1)n1cnc2c(N)nc3ccccc3c21 (centres unmarked) [Example 74],0.37,*,,
Nc1nc2ccccc2c2c1ncn2CCCCOCc1ccccc1 [Example 75],,*,*,
Cc1cccc(COCCCCn2cnc3c(N)nc4ccccc4c32)c1 [Example 76],1.11,*,,
Cc1ccc(COCCCCn2cnc3c(N)nc4ccccc4c32)cc1 [Example 77],0.12,*,,
Nc1nc2ccccc2c2c1ncn2CCCCOCc1ccc(C(F)(F)F)cc1 [Example 78],,*,*,
Nc1nc2ccccc2c2c1ncn2CC(OCCCCOc1ccccc1)c1ccccc1 (centres unmarked) [Example 79],,*,*,
CC(n1cnc2c(N)nc3ccccc3c21)C(C)(C)OCc1ccccc1 (centres unmarked) [Example 80],,*,*,
CCC(COCc1ccccc1)n1c(C)nc2c(N)nc3ccccc3c21 (centres unmarked) [Example 81],1.11,*,,
CCc1nc2c(N)nc3ccccc3c2n1C(CC)COCc1ccccc1 (centres unmarked) [Example 82],,*,*,
Nc1nc2ccccc2c2c1ncn2COCCOc1ccc([N+](=O)[O-])cc1 [Example 83],0.37,*,,
Nc1nc2ccccc2c2c1ncn2COCCOCc1ccccc1 [Example 84],0.37,*,,
Cc1ccc(COCCOCn2cnc3c(N)nc4ccccc4c32)cc1 [Example 85],0.37,*,,
Cc1cccc(COCCOCn2cnc3c(N)nc4ccccc4c32)c1 [Example 86],0.37,*,,
N#Cc1ccc(COCCOCn2cnc3c(N)nc4ccccc4c32)cc1 [Example 87],1.11,*,,
N#Cc1cccc(COCCOCn2cnc3c(N)nc4ccccc4c32)c1 [Example 88],0.37,,,30
CCCCc1nc2c(N)nc3c(c2n1CCOCc1cccc(Cl)c1)CCCC3 [Example 89],0.37,,,10
CCCCc1nc2c(N)nc3c(c2n1CCOCc1ccc(C)cc1)CCCC3 [Example 90],0.12,,,10
CCCCc1nc2c(N)nc3c(c2n1CCOCc1ccc(C(F)(F)F)cc1)CCCC3 [Example 91],0.37,,,10
